Activity calls are given as the source filed them. The rule behind the calls is not given here.
Experiments:
[1] = biological target: Actin, alpha skeletal muscle (Oryctolagus cuniculus) (UniProt P68135); test: Inhibition of immobilized rabbit skeletal muscle alpha-actin interaction with cofilin at 56 uM pretreated for 30 mins followed by cofilin addition measured after 1 hr by pull-down assay
[2] = biological target: Actin, alpha skeletal muscle (Oryctolagus cuniculus) (UniProt P68135); test: Inhibition of immobilized rabbit skeletal muscle alpha-actin interaction with gelsolin at 12.5 uM pretreated for 30 mins followed by gelsolin addition measured after 1 hr by pull-down assay
[3] = biological target: Actin, alpha skeletal muscle (Oryctolagus cuniculus) (UniProt P68135); test: Inhibition of immobilized rabbit skeletal muscle alpha-actin interaction with profilin at 66.7 uM pretreated for 30 mins followed by profilin addition measured after 1 hr by pull-down assay
[4] = biological target: Actin, alpha skeletal muscle (Oryctolagus cuniculus) (UniProt P68135); test: Inhibition of immobilized rabbit skeletal muscle alpha-actin interaction with thymosin-beta4 assessed as decrease in cross-linked complex formation at 40 uM pretreated for 30 mins followed by thymosin-beta4 addition measured after 45 mins by cross-linking assay
[5] = biological target: Actin, alpha skeletal muscle (Oryctolagus cuniculus) (UniProt P68135); test: Inhibition of rabbit skeletal muscle alpha-actin nucleation at 500 nM to 5 uM in presence of Turkey gizzard alpha-actinin and […] fluorescent labelled actin by TIRF microscopy analysis
HUVEC [6] = test: Induction of morphological changes in human HUVEC cells assessed as disruption of F-actin fibers at 10 nM to 100 nM incubated for 1 hr by rhodamine-phalloidin staining based fluorescence assay; type: functional, cell-based
[7] = biological target: Actin, alpha skeletal muscle (Oryctolagus cuniculus) (UniProt P68135); test: Binding affinity to immobilized rabbit skeletal muscle alpha-actin assessed change in retention time of G-actin dimers at 40 uM and pH 6.8 to 8 treated for 30 mins in absence of thymosin-beta4 by size-exclusion chromatography
[8] = biological target: Actin, alpha skeletal muscle (Oryctolagus cuniculus) (UniProt P68135); test: Inhibition of immobilized rabbit skeletal muscle alpha-actin interaction with thymosin-beta4 at 40 uM pretreated for 30 mins followed by thymosin-beta4 addition measured after 45 mins by cross-linking assay
[9] = biological target: Actin, alpha skeletal muscle (Oryctolagus cuniculus) (UniProt P68135); test: Binding affinity to immobilized rabbit skeletal muscle alpha-actin assessed as formation of G-actin dimers at 40 uM and pH 6.8 to 8 treated for 30 mins in absence of thymosin-beta4 by size-exclusion chromatography
HUVEC [10] = test: Antiproliferative activity against human HUVEC measured after 72 hrs; type: cell-based
HUVEC [11] = test: Induction of morphological changes in human HUVEC cells assessed as amorphous actin aggregation in nucleus incubated for 1 hr by Hoechst staining based fluorescence assay; type: functional, cell-based
[12] = biological target: Actin, alpha skeletal muscle (Oryctolagus cuniculus) (UniProt P68135); test: (§1) Inhibition of rabbit skeletal muscle alpha-actin polymerization measured after 24 hrs in presence of ATP and fluorescent pyrene-labelled actin by fluorescence based assay
[13] = biological target: Actin, alpha skeletal muscle (Oryctolagus cuniculus, UniProt P68135); test: as §1
[14] = biological target: Actin, alpha skeletal muscle (Oryctolagus cuniculus) (UniProt P68135); test: Inhibition of rabbit skeletal muscle alpha-actin polymerization induced by Mg-ATP assessed as decrease in elongation rate at 500 nM to 5 uM measured every 1 sec for 5 mins in presence of Turkey gizzard alpha-actinin and […] fluorescent labelled actin by TIRF microscopy analysis
HUVEC [15] = test: Inhibition of cell migration in human HUVEC cells assessed as decrease in cell velocity measured after 16 hrs by crystal violet staining based scratch assay; type: functional
[16] = biological target: Actin, alpha skeletal muscle (Oryctolagus cuniculus) (UniProt P68135); test: Induction of rabbit skeletal muscle alpha-actin depolymerization assessed as destabilization of F-actin 5 uM measured every 15 sec for 90 mins in presence of Turkey gizzard alpha-actinin and […] fluorescent labelled actin by TIRF microscopy analysis

Row | inhibition [5] | Activity [7] | inhibition [14] | Activity [16] | Compound | inhibition [1] | inhibition [2] | inhibition [3] | Activity [4] | Activity (HUVEC [6]) | inhibition [8] | Activity [9] | IC50 (HUVEC [10]) | Activity (HUVEC [11]) | inhibition [12] | IC50 [13] | IC50 (HUVEC [15])
1 | – | – | – | – | CO[C@@H]1C[C@@H](O)/C=C/C=C/C=C\[C@H](C)[C@@H]([C@@H](C)[C@@H](O)C[C@@H](C)O)OC(=O)\C=C/C=C/C=C\C(C)=C\[C@@H](C)[C@@H](O)/C=C\C=C\c2coc(n2)[C@@H]1C | Active | Active | Active | – | – | – | – | – | – | – | – | –
2 | Active | Active | Active | Active | CO[C@H]1[C@H](O[C@H]2/C=C\C=C\c3coc(n3)[C@H](C)[C@H](OC)C[C@@H](O)/C=C/C=C/C=C\[C@H](C)[C@@H]([C@@H](C)[C@@H](O)C[C@@H](C)O)OC(=O)\C=C/C=C/C=C\C(C)=C\[C@H]2C)O[C@H](C)[C@@H](O)[C@@H]1OC | Active | Active | Active | Active | Active | Active | Active | 2.98 to 3 nM | Active | Dose-dependent effect | 15200 nM | 31.7 nM
3 | – | – | – | – | C/C1=C/C(=O)O[C@@H]2C[C@@H](CC[C@H](C)/C=C\CC1)O[C@@](O)([C@@H]1CSC(=O)N1)C2 [LATRUNCULIN B] | inactive | inactive | inactive | Active | – | Active | inactive | 612 nM | – | Dose-dependent effect | 8470 nM | 478 nM
